What was measured:
[1] = biological target: KRAS WT (Homo sapiens, UniProt P01116); experiment: SOS-catalyzed nucleotide exchange assay, KRAS WT (Procedure A); assay type: biochemical; conditions: GNE
Method in brief: (§1)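 Preformed TR-FRET complex of biotinylated KRAS (G12C carries C51S/C80L/C118S; others native sequence), Bodipy-GDP and Tb-streptavidin preincubated with compound 60 min at room temperature. Exchange started with human SOS plus 3 mM GTP for 60 min (G13D 30 min). Final RAS/SOS: G12C 3/40 nM; WT, G12D 1/40 nM; G13D 1.25/0 nM. 520/495 nm ratio normalised, fitted to four-parameter logistic.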

[2] = biological target: T1, AsPC-1 cells (Homo sapiens, UniProt P01116, G12D); experiment: Cellular phospho-ERK assay, AsPC-1 cells (KRAS G12D); assay type: cell-based; conditions: 2 hours, read-out: AsPC1 pERK IC50
T1 construct: p-ERK/total ERK AlphaSureFire read-out
T1 sequence (P01116 1-188 isoform P01116-2 G12D): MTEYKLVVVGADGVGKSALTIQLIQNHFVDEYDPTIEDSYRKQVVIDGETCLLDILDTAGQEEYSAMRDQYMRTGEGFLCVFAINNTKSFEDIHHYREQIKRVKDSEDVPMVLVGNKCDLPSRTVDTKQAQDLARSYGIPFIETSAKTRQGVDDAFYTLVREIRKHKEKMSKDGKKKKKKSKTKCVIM
Method in brief: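 PANC08.13 or AsPC-1 cells (homozygous KRAS G12D) were seeded overnight, then treated for 2 h at 37 °C with a 10-point 1:3 titration from 30 μM. Lysates were assayed by AlphaLISA SureFire for p-ERK and total ERK. IC50 came from a 4-parameter fit of the p-ERK/total ERK ratio.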

[3] = biological target: HRAS (Homo sapiens, UniProt P01112); experiment: SOS-catalyzed nucleotide exchange assay, HRAS (Procedure A); assay type: biochemical; conditions: GNE
Chain of HRAS (P01112 with tags, fused parts or gaps): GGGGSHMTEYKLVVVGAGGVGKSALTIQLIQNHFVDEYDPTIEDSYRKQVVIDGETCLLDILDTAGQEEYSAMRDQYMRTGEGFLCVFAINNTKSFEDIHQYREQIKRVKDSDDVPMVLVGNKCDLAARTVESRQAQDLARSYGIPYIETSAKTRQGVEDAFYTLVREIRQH
Excerpt: (§2) Procedure for SOS-Catalyzed Nucleotide Exchange Assay for KRAS-WT, G12C/D/V, G13D, HRAS, and NRAS (Procedure A)
(§3) Recombinant KRAS-G12C protein used in this assay has an additional triple mutation (C51S/C80L/C118S). Whereas KRAS-WT, G12D/V, G13D, HRAS and NRAS are in context of their WT protein sequence background. Specifically, the SOS-catalyzed nucleotide exchange assay utilizes a preformed TR-FRET complex containing a specific biotinylated RAS protein (KRAS-WT, G12C/V/D, G13D, HRAS, NRAS; described above) with Bodipy-GDP, and Terbium-streptavidin. Compounds are preincubated with this complex for 60 minutes. Subsequently, recombinant human SOS protein and unlabeled GTP are added to initiate the exchange reaction. Small molecule inhibitors stabilize the Bodipy-GDP complex whereas the untreated protein rapidly exchanges Bodipy-GDP for unlabeled GTP resulting in reduced TR-FRET signal.
(§4) To assemble the preformed TR-FRET complexes, each biotinylated RAS protein is diluted to 2 μM in an EDTA Buffer (20 mM HEPES pH 7.5, 50 mM sodium chloride, 10 mM EDTA, and 0.01% Tween) and incubated at room temperature for one hour. This mixture is then further diluted to 90 nM in an Assay Buffer (20 mM HEPES pH 7.5, 150 mM sodium chloride, 10 mM magnesium chloride, and 0.005% Tween) containing 15 nM of Terbium-Streptavidin (Invitrogen, catalog #PV3577) and 900 nM of Bodipy-GDP (Invitrogen, catalog #G22360) and incubated at room temperature for six hours. It should be noted that this preformed TR-FRET complex for each of the RAS protein were made ahead of time, aliquoted and stored at −80° C. until the day of the experiment.
(§5) Each test compound (10 mM stock in DMSO) is diluted in DMSO to make a final-10-point, 3-fold dilution and is acoustically dispensed into a 384-well assay plate (Corning, catalog #3820) using an Echo 550 (Labcyte). Each well of the assay plate receives 3 μL of a specific 3×RAS preformed TR-FRET complex and 3 μL of Assay Buffer and is incubated at room temperature for 60 minutes (preincubation time). Each well then receives 3 μL of 3× recombinant human SOS protein and GTP (Sigma, G8877) in Assay Buffer and is incubated at room temperature for 30 minutes (G13D), 60 minutes (KRAS WT/G12C/D, H/NRAS) or 90 minutes for G12V. The final reaction in each well of 9 μL consists of 3 mM GTP, specific Ras and SOS proteins in the following concentrations: KRAS-G12C/SOS=3 nM/40 nM, KRAS-WT and G12D/SOS=1 nM/40 nM, KRAS-G12V/SOS=1.25 nM/160 nM, KRAS-G13D/SOS=1.25 nM/0 nM, HRAS and NRAS=1.25 nM/40 nM.
(§6) The time-resolved fluorescence resonance energy transfer (TR-FRET) signal is measured on an Envision (PerkinElmer) plate reader: Excitation filter=340 nm; emission1=495 nm; emission2=520 nm; dichroic mirror=D400/D505; delay time=[…]. The signal of each well is determined as the ratio of the emission at 520 nm to that at 495 nm. Percent effect of each well is determined after normalization to control wells containing DMSO (no effect) or a saturating concentration of inhibitor (max effect). The apparent effect as a function of compound concentration is fit to a four-parameter logistic equation.
(§7) For Example No. 14, nucleotide exchange assays for KRAS G12D, WT, G12C, and G12V were performed according to Procedure B. All the other compounds were tested according to Procedure A.

[4] = biological target: KRAS G12C (Homo sapiens, UniProt P01116, C118S/C51S/C80L/G12C); experiment: SOS-catalyzed nucleotide exchange assay, KRAS G12C (Procedure A); assay type: biochemical; conditions: GNE
Chain of KRAS G12C (P01116 with tags, fused parts or gaps isoform P01116-2 G12C/C51S/C80L/C118S): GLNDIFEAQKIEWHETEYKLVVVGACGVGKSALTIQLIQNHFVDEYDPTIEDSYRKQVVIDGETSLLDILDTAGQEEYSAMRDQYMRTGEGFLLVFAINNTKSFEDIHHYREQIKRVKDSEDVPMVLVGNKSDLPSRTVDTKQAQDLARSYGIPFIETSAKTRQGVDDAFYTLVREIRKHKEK
Excerpt: as §2, §3, §4, §5, §6, §7

[5] = biological target: KRAS G12V (Homo sapiens, UniProt P01116, G12V); experiment: SOS-catalyzed nucleotide exchange assay, KRAS G12V (Procedure A); assay type: biochemical; conditions: GNE
Chain of KRAS G12V (P01116 with tags, fused parts or gaps isoform P01116-2 G12V): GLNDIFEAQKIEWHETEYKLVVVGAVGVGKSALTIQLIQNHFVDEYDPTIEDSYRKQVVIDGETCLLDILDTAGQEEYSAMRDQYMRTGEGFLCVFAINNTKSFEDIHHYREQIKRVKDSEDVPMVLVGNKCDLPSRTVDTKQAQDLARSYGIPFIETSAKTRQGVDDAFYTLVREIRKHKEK
Method in brief: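 Biotinylated KRAS G12V was loaded with Bodipy-GDP alongside Terbium-streptavidin to form a TR-FRET complex, which was preincubated with compounds for 60 minutes in 384-well plates. Human SOS protein and unlabeled GTP were then added for 90 minutes, giving final concentrations of 1.25 nM KRAS-G12V, 160 nM SOS and 3 mM GTP. The 520/495 nm emission ratio was read on an Envision.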

[6] = biological target: KRAS G13D (Homo sapiens, UniProt P01116, G13D); experiment: SOS-catalyzed nucleotide exchange assay, KRAS G13D (Procedure A); assay type: biochemical; conditions: GNE
Chain of KRAS G13D (P01116 with tags, fused parts or gaps isoform P01116-2 G13D): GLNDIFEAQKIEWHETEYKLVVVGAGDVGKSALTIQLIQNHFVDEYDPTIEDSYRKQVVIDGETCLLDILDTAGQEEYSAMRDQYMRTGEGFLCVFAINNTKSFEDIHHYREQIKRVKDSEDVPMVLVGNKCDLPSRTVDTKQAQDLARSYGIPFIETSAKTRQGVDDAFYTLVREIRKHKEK
Excerpt: as §2, §3, §4, §5, §6, §7

[7] = biological target: NRAS (Homo sapiens, UniProt P01111); experiment: SOS-catalyzed nucleotide exchange assay, NRAS (Procedure A); assay type: biochemical; conditions: GNE
Chain of NRAS (P01111 with tags, fused parts or gaps): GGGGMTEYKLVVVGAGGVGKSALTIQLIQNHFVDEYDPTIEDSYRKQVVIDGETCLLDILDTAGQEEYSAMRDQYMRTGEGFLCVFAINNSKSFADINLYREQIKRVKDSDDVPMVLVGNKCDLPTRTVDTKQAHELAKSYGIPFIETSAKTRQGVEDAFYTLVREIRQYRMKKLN
Excerpt: as §2, §3, §4, §5, §6, §7

[8] = biological target: KRAS G12D (Homo sapiens, UniProt P01116, G12D); experiment: SOS-catalyzed nucleotide exchange assay, KRAS G12D (Procedure A); assay type: biochemical; conditions: guanine nucleotide exchange (GNE)
Chain of KRAS G12D (P01116 with tags, fused parts or gaps isoform P01116-2 G12D): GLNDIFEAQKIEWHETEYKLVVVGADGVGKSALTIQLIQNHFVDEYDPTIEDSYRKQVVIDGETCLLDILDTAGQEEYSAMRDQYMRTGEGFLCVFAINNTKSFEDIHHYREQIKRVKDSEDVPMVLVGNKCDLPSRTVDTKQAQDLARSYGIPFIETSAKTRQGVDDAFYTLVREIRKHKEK
Method in brief: as §1

Chain of KRAS WT (P01116 with tags, fused parts or gaps isoform P01116-2): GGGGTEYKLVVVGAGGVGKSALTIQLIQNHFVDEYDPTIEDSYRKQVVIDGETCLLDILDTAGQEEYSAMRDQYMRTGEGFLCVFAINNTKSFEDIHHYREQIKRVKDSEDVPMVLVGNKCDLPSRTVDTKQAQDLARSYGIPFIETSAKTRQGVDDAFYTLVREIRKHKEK

Structure (SMILES) | IC50 [1] [µM] | IC50 [2] [µM] | IC50 [3] [µM] | IC50 [4] [µM] | IC50 [5] [µM] | IC50 [6] [µM] | IC50 [7] [µM] | IC50 [8] [µM]
Cc1cc2[nH]ncc2c(-c2nccc3c2sc2nc(OCC4CCS(=O)(=O)CC4)nc(N4C[C@H]5CC[C@@H](C4)N5)c23)c1C(F)(F)F [Ex-36, 4-(((4-((1R,5S)-3,8-diazabicyclo[3.2.1]octan-3-yl)-8-(6-methy1-5-(trifluoromethyl)-1H-indazol-4-yl)pyrido[4′,3′:4,5]thieno[2,3-d]pyrimidin-2-yl)oxy)methyl)tetrahydro-2H-thiopyran 1,1-dioxide] | > 11.1 | 28.4 | > 11.1 | > 11.1 | > 11.1 | > 11.1 | > 11.1 | 4.12
Cc1cc2[nH]ncc2c(-c2nccc3c2sc2nc(OCC4(C)CNC(=O)C4)nc(N4C[C@H]5CC[C@@H](C4)N5)c23)c1C(F)(F)F (stereo partly drawn) [Ex-37, 4-(((4-((1R,5S)-3,8-diazabicyclo[3.2.1]octan-3-yl)-8-(6-methy1-5-(trifluoromethyl)-1H-indazol-4-yl)pyrido[4′,3′:4,5]thieno[2,3-d]pyrimidin-2-yl)oxy)methyl)-4-methylpyrrolidin-2-one] | > 11.1 | > 30 | > 11.1 | > 11.1 | > 11.1 | > 11.1 | > 11.1 | 1.28
Cc1cc2[nH]ncc2c(-c2nccc3c2sc2nc(OCC4(C#N)CCOCC4)nc(N4C[C@H]5CC[C@@H](C4)N5)c23)c1C(F)(F)F [Ex-38, 4-(((4-((1R,5S)-3,8-diazabicyclo[3.2.1]octan-3-yl)-8-(6-methyl-5-(trifluoromethyl)-1H-indazol-4-yl)pyrido[4′,3′:4,5]thieno[2,3-d]pyrimidin-2-yl)oxy)methyl)tetrahydro-2H-pyran-4-carbonitrile] | > 11.1 | > 30 | > 11.1 | > 11.1 | > 11.1 | 3.55 | > 11.1 | 3.79
Cc1cc2[nH]ncc2c(-c2nccc3c2sc2nc(OCC4(C)CS(=O)(=O)C4)nc(N4C[C@H]5CC[C@@H](C4)N5)c23)c1C(F)(F)F [Ex-39, 3-(((4-((1R,5S)-3,8-diazabicyclo[3.2.1]octan-3-yl)-8-(6-methyl-5-(trifluoromethyl)-1H-indazol-4-yl)pyrido[4′,3′:4,5]thieno[2,3-d]pyrimidin-2-yl)oxy)methyl)-3-methylthietane 1,1-dioxide] | > 11.1 | 12.8 | > 11.1 | > 11.1 | > 11.1 | > 11.1 | > 11.1 | 2.42

— patent US20260347372A1, “SMALL MOLECULE INHIBITORS OF KRAS G12D MUTANT” (MERCK SHARP & DOHME LLC, priority 2023, published 2026)
